Data set [1] has as its system Pseudomonas aeruginosa Migula BNCC337940. Description: MIC by microdilution method, sensitive Pseudomonas aeruginosa Migula. Conditions: 24 h, read-out: MIC Pseudomonas aeruginosa Migula. Format: cell-based. An excerpt:
(§1) Used bacteria: including drug-resistant bacteria and sensitive bacteria: the used sensitive strains include Cryptococcus neoformans BNCC225501, Candida albicans BNCC186382, Aspergillus fumigatus Fresenius BNCC338385, Escherichia coli BNCC336902, Staphylococcus aureus BNCC186335 and Pseudomonas aeruginosa Migula BNCC337940, and the used drug-resistant Candida albicans is clinically isolated azole multi-drug resistant Candida albicans (CA10) donated by Qianfoshan Hospital in Shandong Province. The strains are stored in normal saline containing 20% glycerol at −80° C. for a long time. Before operation, the strains are lined and transferred to a YPD solid plate, and subjected to static culture at 30° C. for 24 h; single colonies are selected and transferred to a YPD liquid medium, and cultured at 200 rpm at 30° C. overnight; and the overnight cultured bacterial solution is inoculated into a new YPD liquid medium at a ratio of about 1:100, and subjected to shaking culture at 200 rpm at 30° C. for 4 h so that Candida albicans is in a logarithmic phase.
(§2) Culture medium: the culture medium used by the microdilution method is RPMI-1640 culture medium (Gibco).
(§3) 1.2 Operation and results of detection of minimum inhibitory concentration (MIC) of the compounds and the azole drugs by the microdilution method: the MIC of the synthesized compound and the azole drug fluconazole for the standard strains is detected by the microdilution method according to fungal sensitivity detection method (M27-A3) established by the Clinical and Laboratory Standards Institute (CLSI). Specific steps are as follows: the prepared strain concentration is adjusted to 0.5-2.5×10^3 CFU/mL by using RPMI-1640 medium. 200 μL of bacterial solution containing the highest concentration of the drug to be detected is added into the first well of a 96-well plate, and 100 μL of blank bacterial solution without drug is added into each of the other wells; the bacterial solution is diluted to a series of concentration gradients by a double gradient dilution method; the well plate is subjected to static culture at constant temperature of 35° C. for 24 h; after the absorbance (OD) of each concentration gradient at 570 nm is detected by a microplate reader and the absorbance of a blank medium is subtracted, the growth rate=dosing hole value/control hole value ×100%, the inhibition rate=1−growth rate, and the minimum concentration with the inhibition rate greater than 80% is the minimum inhibitory concentration (MIC) value.

In data set [2] the test system is Aspergillus fumigatus Fresenius BNCC338385. Description: MIC by microdilution method, sensitive Aspergillus fumigatus Fresenius. Format: cell-based. The settings on record: Aspergillus fumigatus, 24 h, read-out: MIC Aspergillus fumigatus Fresenius.
Text: as §1, §2, §3

In data set [3] the test system is Escherichia coli BNCC336902. Description: MIC by microdilution method, sensitive Escherichia coli. Format: cell-based. Conditions: read-out: MIC Escherichia coli.
Text: as §1, §2, §3
Background: Dilution methods test growth across graded concentrations, often in twofold steps.

The subject of data set [4] is Cryptococcus neoformans BNCC225501. Description: MIC by microdilution method, sensitive Cryptococcus neoformans. Format: cell-based. The settings on record: Cryptococcus neoformans, read-out: MIC Cryptococcus neoformans.
Text: as §1, §2, §3

For data set [5], the system named is RAW 264.7 murine macrophage cells. Description: MTT cytotoxicity test on RAW 264.7. Format: cell-based, mouse. The settings on record: for IC50: Mus musculus, RAW264.7, 24 h, read-out: IC50 RAW 264.7 cell viability. As to the method:
3.1.1 Cell line: RAW 264.7 murine macrophage cells are donated by Shihezi University College of Pharmacy, and cultured in a 37° C. constant temperature incubator with high glucose DMEM medium (Gibco), 10% FBS serum (Gibco) and 5% CO2, and subculturing and related experimental operation are conducted when cell fusion degree reaches about 70-80%.
3.1.2 Materials and reagents: fetal bovine serum (American BI company), DMEM high glucose medium (American Gibco company), penicillin-streptomycin solution (Shanghai Solarbio company), PBS buffer solution (American Gibco company), isopropyl alcohol (analytically pure), dimethyl sulfoxide (DMSO) (Shanghai Solarbio company), and MTT powder (Shanghai Solarbio company).
Logarithmic RAW 264.7 cells are taken; cell suspension is prepared with a complete medium; the concentration of the cell suspension is adjusted to about 5×10^4 cells/mL; 200 μl of cell suspension is added into each hole of the 96-well culture plate and cultured in 5% CO2 in an incubator at 37° C. for about 24 h until the cells grow to the cell wall (at density of 50%); the medium is absorbed by a 5 ml needle tube or negative pressure; RAW 264.7 is divided into a blank group, a solvent control group and a drug administration group; in the blank group, there is no cell, and a medium, MTT and DMSO are added; in the solvent control group, cells, the same concentration of drug dissolving media, culture solution, MTT and DMSO are added; in the drug administration group, medical solution for diluting the concentration gradient with serum-free medium (containing 1% PE) is added; each concentration shall set at least 3 complex wells; 100 μl of medical solution is added into each well; and the culture plate is continued to be incubated in the incubator for 24 h. […] 100 μl of DMSO is added into each well to dissolve formazan crystals, and shaken in a shaker for 10 min at low speed to fully dissolve the crystals. The absorbance (OD) value of each well at 490 nm is determined by the microplate reader, and the cell viability is calculated by the formula: Cell viability (%)=(OD drug administration group−OD blank group)/(OD solvent control group−OD blank group)× 100%.
OD values at 490 nm are determined by the experimental method in each group, and the data are subjected to one-way analysis of variance by Graphpad prism 8.0 software.
Background: Formazan colour is commonly taken as a measure of viable cells.

The test system of data set [6] is Staphylococcus aureus BNCC186335. Description: MIC by microdilution method, sensitive Staphylococcus aureus. Type of data set: cell-based. Conditions: read-out: MIC Staphylococcus aureus.
Text: as §1, §2, §3

For data set [7], the system named is Candida albicans BNCC186382. The data set can be described thus: MIC by microdilution method, sensitive Candida albicans. Type of data set: cell-based. Conditions: Candida albicans, read-out: MIC Candida albicans.
Text: as §1, §2, §3

Data set [8] has as its system Drug-resistant Candida albicans CA10. The data set can be described thus: MIC by microdilution method, drug-resistant Candida albicans CA10. Type of data set: cell-based. The settings on record: clinically isolated azole multi-drug resistant strain CA10; 24 h.
Text: as §1, §2, §3

For the next data set, the system named is Candida albicans CA10. The data set can be described thus: Checkerboard microdilution assay of compound combined with fluconazole, FICI model. Format: cell-based. Conditions: for MIC of compound combined: compound concentration in combination with fluconazole; for MIC of compound combined / MIC of azole (fluconazole) combined: inhibition rate about 80%; for FICI: compound plus fluconazole; for MIC of azole (fluconazole) combined: fluconazole concentration in combination with the compound; for MIC: Candida albicans. As to the method: The concentration of Candida albicans CA10 is adjusted to 0.5-2.5×10^3 CFU/mL by using RPMI-1640 medium, and the diluted bacterial solution is used for preparing a working solution of the compound and the azole drug with double concentration gradient. 50 μl of working solution of double concentration of azole drugs and working solution of double concentration of the compound to be detected at each concentration gradient are added in the longitudinal (A-H) direction and transverse (1-12) direction of the 96-well plate respectively, so that the final drug concentration range of fluconazole is 4-64 μg/ml, and the drug concentration range of the compound is 256-16 μg/ml. The 96-well plate is cultured in a constant temperature incubator at 35° C. for 24 h. The amount of viable bacteria is detected with an XTT cell proliferation assay kit, and the absorbance of each well at 490 nm wavelength is detected by the microplate reader. Growth rate=dosing well value/control well value×100%, and inhibition rate=1−growth rate. The MIC when the inhibition rate is about 80% is a break point of the combination of two drugs.
The combination data of the compound and the azole drug collected by the checkerboard microdilution assay are analyzed by an FICI (fractional inhibitory concentration index) model, and the interaction effects are evaluated.
The FICI model can be expressed by the following formula: […]
Wherein: MICA and MICB are MIC values of drug A and drug B used separately, while MICAB and MICBA are the concentrations of drug A and drug B corresponding to the minimum effective dose of the combination of drug A and drug B.

Setting [9] is: sensitive strain, 35° C., minimum concentration with inhibition rate greater than 80%.
[10] abbreviates: BNCC336902, sensitive strain, 35° C., 24 h, minimum concentration with inhibition rate greater than 80%.
The mark [11] stands for this setting: BNCC225501, sensitive strain, 35° C., 24 h, minimum concentration with inhibition rate greater than 80%.
Setting [12] is: BNCC186335, sensitive strain, 35° C., 24 h, minimum concentration with inhibition rate greater than 80%.
[13] abbreviates: BNCC186382, sensitive strain, 35° C., 24 h, minimum concentration with inhibition rate greater than 80%.
The mark [14] stands for this setting: CA10, compound alone, read-out: MIC of compound used separately.

In brackets after ≈: the same amount, converted by molar mass. Where two headings read alike, the source gives them in different places.

Usually MIC stands for the lowest concentration that inhibits growth of the organism. As usually defined, the IC50 is the concentration at which inhibition is half-maximal.

With `Cc1ccccc1-c1cc2ccccc2[nH]1` [Compound 2], the MIC was found to be 256 µg/mL (≈ 1240 µM) in data set [1]; 16 µg/mL (≈ 77.2 µM) in data set [2]; 8 µg/mL (≈ 38.6 µM) in data set [3] (BNCC336902, 24 h); 2 µg/mL (≈ 9.65 µM) in data set [4] (BNCC225501, 24 h); 8 µg/mL (≈ 38.6 µM) in [6] (BNCC186335, 24 h); 4 µg/mL (≈ 19.3 µM) in [7] (BNCC186382, 24 h). Besides, the MIC in the data set on Candida albicans CA10 (CA10, read-out: MIC of compound used separately) was 32 µg/mL. For the same molecule, the IC50 in data set [5] is 50 µM. The same molecule yielded an MIC80 Drug-resistant Candida albicans CA10 in [8] of 32 µg/mL (≈ 154 µM). The “MIC of compound combined” value in the data set on Candida albicans CA10 (CA10) came out at 8 µg/mL. In addition, the FICI in the data set with Candida albicans CA10 (CA10) came out at 0.313. In addition, the “MIC of azole (fluconazole) combined” value in the data set on Candida albicans CA10 (CA10) was 8 µg/mL.
Take `Clc1ccc2cc(-c3ccccc3)[nH]c2c1` [Compound 4]: the MIC was 16 µg/mL (≈ 70.3 µM) in data set [1] (setting [9]); 8 µg/mL (≈ 35.1 µM) in [2] (setting [9]); 16 µg/mL (≈ 70.3 µM) in data set [3] (setting [10]); 16 µg/mL (≈ 70.3 µM) in data set [4] (setting [11]); 8 µg/mL (≈ 35.1 µM) in data set [6] (setting [12]); 16 µg/mL (≈ 70.3 µM) in data set [7] (setting [13]). The MIC in the data set on Candida albicans CA10 (setting [14]) was found to be 32 µg/mL. The “toxicity to RAW 264.7 cells” value in data set [5] (24 h) was “no obvious toxicity”. In addition, in [5], the IC50 amounted to 100 µM. The same molecule displayed an MIC80 Drug-resistant Candida albicans CA10 in [8] of 32 µg/mL (≈ 141 µM). In the data set with Candida albicans CA10 (CA10), the “MIC of compound combined” value was 16 µg/mL. Moreover, the FICI in the data set with Candida albicans CA10 (CA10) is given as 0.563. The “MIC of azole (fluconazole) combined” value with Candida albicans CA10 (CA10) was 8 µg/mL. Also, in the data set on Candida albicans CA10 (combination with fluconazole), the “sensitivity of clinical multi-drug resistant strain CA10 to the azole drug” value is reported as “can improve the sensitivity”.
Take `Fc1ccc2cc(-c3ccccc3)[nH]c2c1` [Compound 5]: the MIC in data set [1] (setting [9]) was found to be 256 µg/mL (≈ 1210 µM); in data set [2] (setting [9]), 16 µg/mL (≈ 75.7 µM); in [3] (setting [10]) it was 16 µg/mL (≈ 75.7 µM); in data set [4] (setting [11]), 256 µg/mL (≈ 1210 µM); in data set [6] (setting [12]) it was 32 µg/mL (≈ 151 µM); in [7] (setting [13]), 16 µg/mL (≈ 75.7 µM). The MIC in the data set on Candida albicans CA10 (setting [14]) is above 256 µg/mL. The “toxicity to RAW 264.7 cells” value in [5] (24 h) is on record as “no obvious toxicity”. For the same molecule, the “cell proliferation of RAW 264.7” value in data set [5] (24 h, different concentrations) is reported as “may inhibit cell proliferation in a concentration-dependent way”. The IC50 in [5] stood at 12.5 µM. Also, the MIC80 Drug-resistant Candida albicans CA10 in [8] worked out at 256 µg/mL (≈ 1210 µM). In addition, the “MIC of compound combined” value in the data set on Candida albicans CA10 (CA10) was 64 µg/mL. In the data set on Candida albicans CA10 (CA10), the FICI amounted to 0.313. For the same molecule, the “MIC of azole (fluconazole) combined” value in the data set with Candida albicans CA10 (CA10) is 8 µg/mL.
For the molecule `OC(Cn1cncn1)(Cn1cncn1)c1ccc(F)cc1F` [Fluconazole, fluconazole, reference compound], the MIC in [2] (setting [9]) is 2 µg/mL (≈ 6.53 µM); in data set [4] (setting [11]) it was 2 µg/mL (≈ 6.53 µM); in data set [7] (setting [13]), 2 µg/mL (≈ 6.53 µM); in the data set with Candida albicans CA10 (CA10, fluconazole alone, read-out: MIC of azole (fluconazole) used separately) it was above 128 µg/mL. In data set [8], this molecule displayed an MIC80 Drug-resistant Candida albicans CA10 above 128 µg/mL.

For the origin of these results see US20250154099A1, “PREPARATION METHOD OF 2-PHENYLINDOLE DERIVATIVES AND APPLICATION THEREOF” (Shihezi University, priority 2022, published 2025).
